Data set [1] in a line: Rat serum assay (release of NRB or NRB analogue). The class given is in vitro ADME. To be noted: 80% rat serum, 37° C., 3 h, n = 3. On the procedure:
The hydrolytic stability of compounds of the invention in rat blood was evaluated using in vitro rat serum obtained from Sigma-Aldrich and stored at −78° C. Similar assay conditions to those reported by Li Di and co-workers (Int. J. Pharm. 2005, 297, 110-119) were followed [200 μL total volume, 80% rat serum (diluting with phosphate buffer (0.1 M, pH 7.4)), at a final compound concentration of 200 μM, 2.5% DMSO overall, 37° C., 3 h, n=3] using an Eppendorf Thermomixer Compact. Reactions were quenched by transferring 150 μL of the incubation mixture to 450 μL of ice-cold acetonitrile, affording a final compound/NRB or NRB analogue concentration of 50 μM. Samples were centrifuged at 14,500×g for 15 min using an Eppendorf Mini Spin Plus centrifuge, at ambient temperature. 400 μL of the supernatant was removed and transferred to clean tubes. Analysis was by RP-LCMS at an injection volume of 20 μL. Each compound and corresponding NRB or NRB analogue were subjected to external calibration curves at 50 μM, 100 μM and 200 μM to allow conversion of absorbance unit area into nmol, from which the percentage of NRB or NRB analogue released from each compound was calculated.

Another data set relates to rat caudal artery. Briefly: Rat caudal artery ring contractile force (vasoconstrictory activity). Further details: species or system rat (male Wistar). As to the method: Male Wistar rats (150-250 g) were obtained from Charles River Italia (Milano, Italy) and killed by decapitation. Ventral caudal artery was isolated, placed in Tyrode solution at room temperature and cleaned of extraneous fatty and connective tissue under a dissection microscope. All vessels were cut into rings 2 mm long, mounted on a custom-built plexiglass support by means of two intraluminal tungsten wires and placed in 20 mL double-jacketed organ baths filled with Tyrode solution of the following composition (mM): NaCl 125, KCl 5, CaCl2 2.7, MgSO4 1, KH2PO4 1.2, NaHCO3 25 and glucose 11, maintained at 37° C., pH 7.35, bubbled with 95% O2 and […]. The endothelium was removed by gently rubbing the lumen of the rings with a very thin rough-surfaced tungsten wire (caudal artery). The mechanical activity of the rings was detected by means of an isometric force transducer (Ugo Basile, Comerio, Italy) coupled to a pen recorder (Ugo Basile, Comerio, Italy). Rings were passively stretched to impose a resting tension (2 g) and were allowed to equilibrate for 60 min. After equilibration, each ring was repeatedly simulated with both KCl (90 mM) and phenylephrine (10 μM) until reproducible responses were obtained. To verify the absence of the endothelium, rings contracted with 1 μM phenylephrine were exposed to […] carbamylcholine. […] Each compound was tested for the vasoconstrictor activity at a concentration of 50 μM, which has been previously reported to be the one evoking the maximal response to norbormide. The contractile responses to the compounds were expressed as percent of the 90 mM KCl response.

Data set [2] in a line: Simulated gastric fluid (SGF) hydrolytic stability assay. Type of data set: physicochemical. The note with it: simulated gastric fluid without pepsin, pH 1.2, 37° C., 1 h, n = 3; for % NRB released, Hydrolytic Stability (simulated gastric fluid): footnote c: compounds not exhibiting vasoconstriction. As to the method:
All in vivo candidates were subjected to a 1 h hydrolytic stability appraisal in the presence of SGF, without pepsin (United States Pharmacopoeia 24) [200 μL total volume, sodium chloride solution (0.03 M) acidified to pH 1.2 with concentrated hydrochloric acid, at a final compound concentration of 200 μM, 2.5% DMSO overall, 37° C., n=3], to investigate any potential chemical instabilities that may occur in the acidic environment of the stomach prior to uptake. Analysis was by RP-LCMS at an injection volume of 5 μL.

Where [3] appears, read: Table 5, compounds of formula (III).

With `O=C(CCCCCCC(=O)OCCN1C(=O)C2C3C=C(C(O)(c4ccccc4)c4ccccn4)C(C3=C(c3ccccc3)c3ccccn3)C2C1=O)OCCN1C(=O)C2C3C=C(C(O)(c4ccccc4)c4ccccn4)C(C3=C(c3ccccc3)c3ccccn3)C2C1=O` (stereo not drawn) [Compound 140, 5-(α-Hydroxy-α-2-pyridylbenzyl)-7-(α-2-pyridylbenzylidene)-N-2′-suberoyloxyethyl-5-norbornene-2,3-dicarboximide dimer], the “% NRB released, Rat Serum” value in data set [1] is 9.9 ± 1.3%. The “Vasoconstriction: maximum contractile effect as a % of 90 mM KCl contraction” value in the data set on rat caudal artery (setting [3]) is given as 0%; in the data set with rat caudal artery (n = 3, pre-cleavage, Table 6), 0%. In addition, the “% NRB released, Hydrolytic Stability” value in data set [2] is listed as 0%.
`CC(CN1C(=O)C2C3C=C(C(O)(c4ccccc4)c4ccccn4)C(C3=C(c3ccccc3)c3ccccn3)C2C1=O)OC(=O)C=Cc1ccccc1` (stereo not drawn) [Compound 135, N-2′-Cinnamoyloxypropyl-5-(α-hydroxy-α-2-pyridylbenzyl)-7-(α-2-pyridylbenzylidene)-5-norbornene-2,3-dicarboximide]: the “% NRB released, Rat Serum” value in data set [1] turned out to be 33.8 ± 6.1%. For the same compound, the “Vasoconstriction: maximum contractile effect as a % of 90 mM KCl contraction” value is 0% in the data set with rat caudal artery (Table 1, compound at 50 μM) and 0% in the data set on rat caudal artery (Table 4, pre-cleavage, n = 3). Besides, the “% NRB released, Hydrolytic Stability (simulated gastric fluid)” value (“% NRB released … (simulated gastric fluid)” below) in data set [2] is reported as 0^c %.
Regarding `O=C(OCCN1C(=O)C2C3C=C(C(O)(c4ccccc4)c4ccccn4)C(C3=C(c3ccccc3)c3ccccn3)C2C1=O)c1ccc(C(=O)OCCN2C(=O)C3C4C=C(C(O)(c5ccccc5)c5ccccn5)C(C4=C(c4ccccc4)c4ccccn4)C3C2=O)cc1` (stereo not drawn) [Compound 143, 5-(α-Hydroxy-α-2-pyridylbenzyl)-7-(α-2-pyridylbenzylidene)-N-2′-terephthaloyloxyethyl-5-norbornene-2,3-dicarboximide dimer], the “% NRB released, Rat Serum” value in data set [1] was determined as 27.5 ± 1.4%. In addition, the “Vasoconstriction: maximum contractile effect as a % of 90 mM KCl contraction” value was 0% in the data set with rat caudal artery (setting [3]) and 0% in the data set with rat caudal artery (n = 3, pre-cleavage, Table 6). The “% NRB released, Hydrolytic Stability” value in data set [2] is 0%.
Turning to `O=C(OCN1C(=O)C2C3C=C(C(O)(c4ccccc4)c4ccccn4)C(C3=C(c3ccccc3)c3ccccn3)C2C1=O)c1ccc(C(=O)OCN2C(=O)C3C4C=C(C(O)(c5ccccc5)c5ccccn5)C(C4=C(c4ccccc4)c4ccccn4)C3C2=O)cc1` (stereo not drawn) [Compound 26, 5-(α-Hydroxy-α-2-pyridylbenzyl)-7-(α-2-pyridylbenzylidene)-N-terephthaloyloxymethyl-5-norbornene-2,3-dicarboximide dimer], the “% NRB released, Rat Serum” value in data set [1] was below 5%. Moreover, the “Vasoconstriction: maximum contractile effect as a % of 90 mM KCl contraction” value in the data set with rat caudal artery (setting [3]) is 0%; in the data set with rat caudal artery (n = 3, pre-cleavage, Table 6), 0%. The “% NRB released, Hydrolytic Stability” value in data set [2] is on record as 0%.
As for `CCCCCCCCCCCC(=O)OCCN1C(=O)C2C3C=C(C(O)(c4ccccc4)c4ccccn4)C(C3=C(c3ccccc3)c3ccccn3)C2C1=O` (stereo not drawn) [Compound 112, N-2′-Dodecanoyloxyethyl-5-(α-hydroxy-α-2-pyridylbenzyl)-7-(α-2-pyridylbenzylidene)-5-norbornene-2,3-dicarboximide], in data set [1], the “% NRB released, Rat Serum” value is on record as 19.3 ± 1.3%. Besides, the “Vasoconstriction: maximum contractile effect as a % of 90 mM KCl contraction” value with rat caudal artery (Table 1, compound at 50 μM) is listed as 0%; in the data set with rat caudal artery (Table 4, pre-cleavage, n = 3), 0%. Moreover, in data set [2], the “% NRB released … (simulated gastric fluid)” value was 0^c %.
Take `O=C(CCC(=O)OCN1C(=O)C2C3C=C(C(O)(c4ccccc4)c4ccccn4)C(C3=C(c3ccccc3)c3ccccn3)C2C1=O)OCCOC(=O)CCC(=O)OCN1C(=O)C2C3C=C(C(O)(c4ccccc4)c4ccccn4)C(C3=C(c3ccccc3)c3ccccn3)C2C1=O` (stereo not drawn) [Compound 27, N-[α-(Ethylenebis(hydrogensuccinoyloxy))methyl]-5-(α-hydroxy-α-2-pyridylbenzyl)-7-(α-2-pyridylbenzylidene)-5-norbornene-2,3-dicarboximide dimer]: the “% NRB released, Rat Serum” value in data set [1] amounted to 20.8 ± 0.7%. Also, the “Vasoconstriction: maximum contractile effect as a % of 90 mM KCl contraction” value with rat caudal artery (setting [3]) is on record as 0%; in the data set with rat caudal artery (n = 3, pre-cleavage, Table 6), 0%. Besides, the “% NRB released, Hydrolytic Stability” value in data set [2] was 0%.
With `O=C(CCCCCCCCCCC(=O)OCCN1C(=O)C2C3C=C(C(O)(c4ccccc4)c4ccccn4)C(C3=C(c3ccccc3)c3ccccn3)C2C1=O)OCCN1C(=O)C2C3C=C(C(O)(c4ccccc4)c4ccccn4)C(C3=C(c3ccccc3)c3ccccn3)C2C1=O` (stereo not drawn) [Compound 142, N-2′-Dodecanedioyloxyethyl-5-(α-hydroxy-α-2-pyridylbenzyl)-7-(α-2-pyridylbenzylidene)-5-norbornene-2,3-dicarboximide dimer], the “% NRB released, Rat Serum” value in data set [1] is on record as below 5%. In addition, the “Vasoconstriction: maximum contractile effect as a % of 90 mM KCl contraction” value in the data set with rat caudal artery (setting [3]) was found to be 0%; in the data set on rat caudal artery (n = 3, pre-cleavage, Table 6), 0%. Also, the “% NRB released, Hydrolytic Stability” value in data set [2] is 0%.
For the compound `O=C(C=Cc1ccccc1)OCCCCN1C(=O)C2C3C=C(C(O)(c4ccccc4)c4ccccn4)C(C3=C(c3ccccc3)c3ccccn3)C2C1=O` (stereo not drawn) [Compound 137, N-4′-Cinnamoyloxybutyl-5-(α-hydroxy-α-2-pyridylbenzyl)-7-(α-2-pyridylbenzylidene)-5-norbornene-2,3-dicarboximide], in data set [1], the “% NRB released, Rat Serum” value was determined as 81.0 ± 0.8%. Also, the “Vasoconstriction: maximum contractile effect as a % of 90 mM KCl contraction” value in the data set on rat caudal artery (Table 1, compound at 50 μM) amounted to 0%; in the data set with rat caudal artery (Table 4, pre-cleavage, n = 3), 0%. Besides, in data set [2], the “% NRB released … (simulated gastric fluid)” value is 0^c %.
In the case of `O=C(CCCCC(=O)OCN1C(=O)C2C3C=C(C(O)(c4ccccc4)c4ccccn4)C(C3=C(c3ccccc3)c3ccccn3)C2C1=O)OCN1C(=O)C2C3C=C(C(O)(c4ccccc4)c4ccccn4)C(C3=C(c3ccccc3)c3ccccn3)C2C1=O` (stereo not drawn) [Compound 22, N-Adipoyloxymethyl-5-(α-hydroxy-α-2-pyridylbenzyl)-7-(α-2-pyridylbenzylidene)-5-norbornene-2,3-dicarboximide dimer], the “% NRB released, Rat Serum” value in data set [1] is listed as 13.4 ± 0.2%. The “Vasoconstriction: maximum contractile effect as a % of 90 mM KCl contraction” value with rat caudal artery (setting [3]) is recorded as 0%; in the data set on rat caudal artery (n = 3, pre-cleavage, Table 6) it was 0%. For the same compound, in data set [2], the “% NRB released, Hydrolytic Stability” value is recorded as 0%.
With `O=C(CCCCCCC(=O)OCN1C(=O)C2C3C=C(C(O)(c4ccccc4)c4ccccn4)C(C3=C(c3ccccc3)c3ccccn3)C2C1=O)OCN1C(=O)C2C3C=C(C(O)(c4ccccc4)c4ccccn4)C(C3=C(c3ccccc3)c3ccccn3)C2C1=O` (stereo not drawn) [Compound 23, 5-(α-Hydroxy-α-2-pyridylbenzyl)-7-(α-2-pyridylbenzylidene)-N-suberoyloxymethyl-5-norbornene-2,3-dicarboximide dimer], the “% NRB released, Rat Serum” value in data set [1] amounted to 14.9 ± 5.0%. Also, the “Vasoconstriction: maximum contractile effect as a % of 90 mM KCl contraction” value in the data set on rat caudal artery (setting [3]) was 0%; in the data set on rat caudal artery (n = 3, pre-cleavage, Table 6) it was 0%. Also, the “% NRB released, Hydrolytic Stability” value in data set [2] is listed as 0%.
On to `O=C(CCCCC(=O)OCCN1C(=O)C2C3C=C(C(O)(c4ccccc4)c4ccccn4)C(C3=C(c3ccccc3)c3ccccn3)C2C1=O)OCCN1C(=O)C2C3C=C(C(O)(c4ccccc4)c4ccccn4)C(C3=C(c3ccccc3)c3ccccn3)C2C1=O` (stereo not drawn) [Compound 139, N-2′-Adipoyloxyethyl-5-(α-hydroxy-α-2-pyridylbenzyl)-7-(α-2-pyridylbenzylidene)-5-norbornene-2,3-dicarboximide dimer], for which the “% NRB released, Rat Serum” value in data set [1] turned out to be 11.7 ± 1.6%. For the same compound, the “Vasoconstriction: maximum contractile effect as a % of 90 mM KCl contraction” value with rat caudal artery (setting [3]) is on record as 20%; in the data set on rat caudal artery (n = 3, pre-cleavage, Table 6), 20%. The “% NRB released, Hydrolytic Stability” value in data set [2] is recorded as 0%.
